From patent US10350216B2, “Methods of treating, preventing and diagnosing leukemia and other blood diseases and disorders” (The Trustees of Columbia University in the City of New York, priority 2013, dated 2019)

Key:
[1] = system: LSK cells cultured in the presence of primary osteoblasts; test: Real-time PCR of Hes1, Pu.1 and CEBPα in LSK+ population co-cultured with primary osteoblasts and treated with Wnt3a; assay type: cell-based, mouse; conditions: Wnt3a 50 ng/ml for 24 hours, co-culture with primary osteoblasts
Protocol: (§1) In FIGS. 57B and C, the vehicle treated is represented by the left hand bar and the Wnt3a treated is represented by the right hand bar. n=4 replicates, *p<0.05 versus vehicle. Results are mean±SD.
(§2) Total RNA was isolated from LSK or hematopoietic cells using RNAeasy micro Plus kit (Quiagen). Total RNA from long bones was isolated using TRIzol reagent. Quantitative real-time PCR was performed using the SYBR Green Master Mix (Bio-Rad) as previously described (Rached et al., 2010a). β-Actin was used as endogenous control. Gene expression in LT-HSCs, ST-HSCs and MPPs was performed using the Power Syber Green Cells-to-CT kit (Ambion Life Technologies)

[2] = system: primary, calvaria-derived osteoblasts; test: Real-time PCR of Jagged-1 and Magp-2 in primary osteoblasts treated with Wnt3a; assay type: cell-based, mouse; conditions: Wnt3a 50 ng/ml for 24 hours, versus vehicle
Protocol: as §1, §2
For flow cytometry analysis, osteoblasts were identified from the digested bone samples as a population of CD34^−Lin^−Ocn^+ cells, where OCN (osteocalcin) is an osteoblast-specific, non-nuclear protein commonly used for isolation of live osteoblastic cells (Eghbali-Fatourechi et al., 2005; Rubin et al., 2011; Manavalan et al., 2012). For experiments in mice, all gene expression studies were repeated using calvaria-derived cells a population rich in committed osteoblast progenitors and routinely used as osteoblast-representative. Primary murine osteoblasts were prepared from calvaria of 2 day-old pups as previously described (Ghosh-Choudhury et al., 1994; Rached et al., 2010b). […]

βcat(ex3)osb mice [3] = test: DBZ (γ-secretase inhibitor) treatment of βcat(ex3)osb mice: blood counts, flow cytometry, histology, survival; assay type: in vivo
Protocol: (§3) […] DBZ is cell-permeable, selective, nontransition sate and noncompetitive inhibitor of the γ-secretase complex. DBZ was synthesized to greater than 99.9% purity as assessed by LC/MS (Syncom) and suspended in a 0.5% Methocel E4M (wt/vol, Colorcon) and 0.1% (vol/vol) Tween-80 (Sigma) solution (van Es et al., 2005). Immediately before intraperitoneal injection, DBZ was sonicated for 2 minutes to achieve a homogenous suspension.
(§4) For hematological measurements, blood was collected by cardiac puncture. Peripheral blood cell counts were performed on a FORCYTE Hematology Analyzer (Oxford Science Inc.). For morphological assessment, peripheral blood smears were stained with Wright-Giemsa stain (Sigma-Aldrich) for 10 minutes followed by rinsing in dH2O for 3 minutes. Images were taken using a 60× objective on a Leica microscope outfitted with camera.
Freshly isolated bone marrow cells and spleen cells were resuspended in flow-staining buffer (PBS plus 2% FBS) and the primary conjugated antibodies were added. After 30 minutes incubation at 4° C., the cells were then washed twice before flow cytometry analysis. The following monoclonal antibodies conjugated with fluorescein isothiocyanate (FITC), Allophycocyanin (APC) phycoerythrin (PE), PE-Cy7, APC-CY7, Pacific Blue, and Alexa 700 were used: CD117 (c-kit; 2B8), Sca-1 (D7), Mac-1α (M1/70), Gr-1(RB6-8C5), TER-119, (Ly-76) B220 (CD45R), CD19 (ID3), IgM (R6-60.2), CD3 (17A2), CD4 (RM4-5), CD8a (53-6.7), CD34 (RAM34), CD45 (30-F11), CD31 (MEC 13.3), CD16/CD32 (FcγRII/III; 2.4G2), CD135 (A2F10.1), CD150 (9D1), CD71 (C2), CD45.2 (104), CD45.1 (A20), F4/80, non-phospho (Active) β-Catenin (S33/S37/T41) antibody, IL-7Rα (SB199), Jagged-1 (C-20) and (Cell Signaling; D13A1). Seven-color flow cytometry acquisition was performed using a LSR II flow cytometer (Becton Dickinson) and analysis using FLO-JO software (Treestar, Inc). Cells were gated for size, shape and granularity using forward and side scatter parameters. The positive populations were identified as cells that expressed specific levels of fluorescence activity above the nonspecific auto fluorescence of the isotype control. Nonspecific binding was reduced by preincubation with unconjugated (2.4G2). Osteoblasts from MDS/AML patients or healthy subjects were identified as CD34−/Lin−OCN+ cells, (OCN: osteocalcin an osteoblast-specific protein used for isolation of live osteoblastic cells). For Flow sorting bone marrow, spleen and thymus cells were resuspended in flow staining buffer at 1×10^6/ml and labeled with the appropriate conjugated antibodies. After 30 minutes incubation, cells were washed twice using flow buffer. Flow sorting was performed using FACSAria (Becton Dickinson). Sorted populations were subsequently cultured or stored in RLT buffer at −80° C. for later extraction of RNA. Fluorescence intensity plots were presented in log scale. All flow cytometry data were representative of five independent experiments.
Bone marrow biopsies were fixed overnight in 10% neutral formalin solution, decalcified embedded in paraffin and sectioned at 5 μm per standard laboratory protocol. Sections were stained for β-catenin using a monoclonal antibody (1:1000, BD Transduction Lab) or for Runx2 using a polyclonal antibody (1:100 dilution, Santa Cruz) on an automated Ventana Discovery XT (Tuscon, Ariz.) platform according to manufacturer's instructions. Immune complexes formed were developed using a DAB Map Kit (Ventana, Tuscon, Ariz.). Murine long bones, spleen and liver were collected from one month old mice, fixed overnight in 10% neutral formalin solution, embedded in paraffin, sectioned at 5 μm, and stained with haematoxylin and eosin (H&E). For immunohistochemistry, specimens were incubated with CD-117 (C-kit; Abeam), CD13 (Santa Cruz) or Myeloperoxidase (MPO) antibodies after an antigen retrieval step and blocking of endogenous peroxidase with 3% H2O2. […]

βcat(ex3)osb mice [4] = test: Six-week treatment of βcat(ex3)osb mice with anti-Jagged1 antibody or DBZ (Example 17); assay type: in vivo
Protocol: The following endpoints are analyzed: survival, complete hematopoietic profile in the marrow, leukemia presence in peripheral blood, bone marrow, spleen and liver, potential end organ toxicity, and gene expression profiling of Notch targets Hes1, Hes5, Hey1, and Hey2, and the Hes1 targets, Cebpα and Pu.1.

wild type mice = test: DBZ treatment of wild type mice: peripheral blood counts and bone marrow cellularity; assay type: in vivo, mouse; conditions: DBZ 2 μmol/kg body weight daily for 10 days
Protocol: as §3
as §4, with “camera. […]” for “camera.”
Hematological measurements, peripheral blood morphology, flow cytometry, PCR, and histological analysis were performed as described in Example 1.

[5] = βcat(ex3)osb mice, 10 days DBZ, bone marrow and spleen
[6] = βcat(ex3)osb mice, DBZ 2 μmol/kg body weight daily for 10 days
[7] = βcat(ex3)osb mice, six weeks treatment

Q: What does the source list for Wnt3a?
A: Notch signaling in LSK cells (Hes1, Pu.1 and CEBPα expression) [1]: stimulated; Expression of Jagged-1 and Magp-2 [2]: upregulated

Q: What does the source list for `C[C@H](NC(=O)Cc1cc(F)cc(F)c1)C(=O)NC1C(=O)N(C)c2ccccc2-c2ccccc21` (stereo partly drawn) [DBZ, (2S)-2-[2-(3,5-difluorophenyl)-acetylamino]-N-(5-methyl-6-oxo-6,7-dihydro-5H-dibenzo[b,-d]azepin-7-yl)-propionamide]?
A: Toxic effects (intestinal architecture, goblet cell metaplasia, PAS staining) (βcat(ex3)osb mice [3]; mice treated 10 days with DBZ, intestine): without any toxic effects; Survival (Kaplan-Meier) (βcat(ex3)osb mice [3]; βcat(ex3)osb mice treated with DBZ versus vehicle): increased survival; Blasts and hypersegmented neutrophils in the blood; infiltration with immature and atypical myeloid cells and atypical micro-megakaryocytes in bone marrow and spleen (βcat(ex3)osb mice [3]; βcat(ex3)osb mice, 10 days DBZ): not observed; Bone marrow cellularity (βcat(ex3)osb mice [3]; βcat(ex3)osb mice, 10 days DBZ): not affected; LSK and lymphoid-biased progenitors in the bone marrow and LSK/FcgRII/III subset of myeloid progenitors in spleen and bone marrow (βcat(ex3)osb mice [3]; βcat(ex3)osb mice, 10 days DBZ): returned to normal levels; Liver histology (βcat(ex3)osb mice [3]; βcat(ex3)osb mice, 10 days DBZ): appeared normal; Myeloperoxidase staining in bone marrow, spleen and liver (βcat(ex3)osb mice [3]; βcat(ex3)osb mice, 10 days DBZ): identical to that of wild type animals; Compromised B-lymphopoiesis (βcat(ex3)osb mice [3]; [5]): partially rescued; Defects in the myeloid lineage, erythroid cells, LSK and LT-HSCs populations (βcat(ex3)osb mice [3]; [5]): reversed; Osteopetrotic phenotype (βcat(ex3)osb mice [3]; βcat(ex3)osb mice, 10 days DBZ, long bone sections): not affected; Anemia, peripheral monocytosis, neutrophilia and lymphocytopenia (βcat(ex3)osb mice [3]; βcat(ex3)osb mice, 10 days DBZ, peripheral blood): reversed; BA (basophils) (βcat(ex3)osb mice [3]; [6]): 0.67 ± 0.7%; BM cell per femur (βcat(ex3)osb mice [3]; [6]): 18.6 ± 3.5 10^5; EO (eosinophils) (βcat(ex3)osb mice [3]; [6]): 1.87 ± 1.6%; HB (βcat(ex3)osb mice [3]; [6]): 11.2 ± 0.9 g/dL; HCT (βcat(ex3)osb mice [3]; [6]): 36.75 ± 3.2%; LY (lymphocytes) (βcat(ex3)osb mice [3]; [6]): 49.76 ± 4.3%; MO (monocytes) (βcat(ex3)osb mice [3]; [6]): 7.46 ± 1.2%; NE (βcat(ex3)osb mice [3]; [6]): 42.21 ± 4.8%; Platelet (βcat(ex3)osb mice [3]; [6]): 650 ± 113.1 10^3/μl; RBC (βcat(ex3)osb mice [3]; [6]): 8.06 ± 0.5 ×10^6/μl; WBC (βcat(ex3)osb mice [3]; [6]): 3.1 ± 0.5 ×10^3/μl; Toxic effect on the intestines (βcat(ex3)osb mice [4]; mouse, in vivo): no toxic effect; Anemia, peripheral monocytosis, neutrophilia and lymphocytopenia and defects in the myeloid lineage, erythroid cells, LSK and LT-HSCs populations in the bone marrow (βcat(ex3)osb mice [4]; [7]): reversal; Expression of Notch targets Hes1, Hes5, Hey1, and Hey2, and the Hes1 targets, Cebpα and Pu.1 (βcat(ex3)osb mice [4]; [7]): decrease; Invasion of myeloid cells (βcat(ex3)osb mice [4]; [7]): no invasion; LSK and lymphoid-biased progenitors in the bone marrow and LSK/FcgRII/III subset of myeloid progenitors in spleen and bone marrow (βcat(ex3)osb mice [4]; [7]): return to normal levels; Myeloperoxidase staining in bone marrow, spleen and liver (βcat(ex3)osb mice [4]; [7]): identical to that of control animals; Survival (βcat(ex3)osb mice [4]; [7]): increased survival; BA (basophils) (wild type mice): 0.5 ± 0.2%; BM cell per femur (wild type mice): 71.5 ± 4.3 10^5; EO (eosinophils) (wild type mice): 1.55 ± 0.2%; HB (wild type mice): 12.8 ± 0 g/dL; HCT (wild type mice): 45.90 ± 2.5%; LY (lymphocytes) (wild type mice): 78.54 ± 3.2%; MO (monocytes) (wild type mice): 5.01 ± 0.6%; NE (wild type mice): 14.41 ± 3.2%; Platelet (wild type mice): 1119.5 ± 68.5 10^3/μl; WBC (wild type mice): 3.54 ± 0.5 ×10^3/μl
